Read-outs that look alike come from different tables or passages of the source.
Tests used:
[1] = system: UACC-62; assay: NCI 60 cell line screen (Melanoma); type: cell-based, human
[2] = system: SF-268; assay: NCI 60 cell line screen (CNS Cancer); type: cell-based, human
[3] = system: SK-MEL-5; assay: NCI 60 cell line screen (Melanoma); type: cell-based, human
[4] = system: MOLT-4; assay: NCI 60 cell line screen (Leukemia); type: cell-based, human
[5] = system: MCF-7; assay: NCI 60 cell line screen (Breast Cancer); type: cell-based, human
[6] = system: HS 578T; assay: NCI 60 cell line screen (Breast Cancer); type: cell-based, human
[7] = system: ACHN; assay: NCI 60 cell line screen (Renal Cancer); type: cell-based, human
[8] = system: MDA-MB-231 human breast cancer cells; assay: alamarBlue cell viability assay; type: cell-based; conditions: Homo sapiens, MDA-MB-231, 72 h, read-out: Antiproliferative Activity MDA-MB-231 Cells IC50
[9] = system: MCF-7 human breast cancer cells; assay: alamarBlue cell viability assay; type: cell-based; conditions: 72 h; for IC50: alamarBlue, read-out: Antiproliferative Activity MCF-7 Cells IC50
[10] = system: SK-MEL-28; assay: NCI 60 cell line screen (Melanoma); type: cell-based, human; conditions: SK-MEL-28, single dose 10 µM
[11] = system: IGROV1; assay: NCI 60 cell line screen (Ovarian Cancer); type: cell-based, human
[12] = system: HL-60 (TB); assay: NCI 60 cell line screen (Leukemia); type: cell-based, human
[13] = system: SR; assay: NCI 60 cell line screen (Leukemia); type: cell-based, human
[14] = target: T1, CYP19 (aromatase) (Homo sapiens, UniProt P11511); assay: cytochrome P450 assay (DBF fluorescence); conditions: read-out: % Inhibition at 20 µg/mL CYP19
T1 sequence (P11511 1-503): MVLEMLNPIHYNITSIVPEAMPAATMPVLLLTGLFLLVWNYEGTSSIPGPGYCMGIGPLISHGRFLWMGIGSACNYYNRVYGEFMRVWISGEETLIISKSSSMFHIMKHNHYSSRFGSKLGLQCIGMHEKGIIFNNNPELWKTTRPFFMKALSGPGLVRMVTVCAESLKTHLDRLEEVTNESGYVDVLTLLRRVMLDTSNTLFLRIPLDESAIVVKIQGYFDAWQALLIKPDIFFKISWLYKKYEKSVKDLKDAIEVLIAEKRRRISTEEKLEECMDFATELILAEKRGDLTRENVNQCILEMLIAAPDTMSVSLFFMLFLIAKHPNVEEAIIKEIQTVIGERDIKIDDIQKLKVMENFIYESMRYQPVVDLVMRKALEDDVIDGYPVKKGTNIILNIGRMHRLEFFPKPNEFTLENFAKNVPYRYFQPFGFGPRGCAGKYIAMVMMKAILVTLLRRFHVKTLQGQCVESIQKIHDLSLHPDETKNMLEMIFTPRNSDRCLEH

[15] = system: CCRF-CEM; assay: NCI 60 cell line screen (Leukemia); type: cell-based, human
[16] = system: OVCAR-8; assay: NCI 60 cell line screen (Ovarian Cancer); type: cell-based, human
[17] = system: LOX IMV1; assay: NCI 60 cell line screen (Melanoma); type: cell-based, human
[18] = system: SK-OV-3; assay: NCI 60 cell line screen (Ovarian Cancer); type: cell-based, human

COc1ccc(C(c2cc(OC)c(OC)c(OC)c2)n2ccnc2)cc1O (stereo not shown) [21l, 5-((1H-Imidazol-1-yl)(3,4,5-Trimethoxyphenyl)Methyl)-2-Methoxyphenol] was tested, and the GI50 ([1]; Homo sapiens, UACC-62, NCI 5 dose assay) was 668 nM, the Growth percentage ([1]; UACC-62, single dose 10 µM) was 36.48% and the GI50 ([2]; Homo sapiens, SF-268, NCI 5 dose assay) was 731 nM. The Growth percentage ([2]; SF-268, single dose 10 µM) was 39.64%, the GI50 ([3]; Homo sapiens, SK-MEL-5, NCI 5 dose assay) was 367 nM and the Growth percentage ([3]; SK-MEL-5, single dose 10 µM) was -12.88%. The GI50 ([4]; Homo sapiens, MOLT-4, NCI 5 dose assay) was 565 nM, the Growth percentage ([4]; MOLT-4, single dose 10 µM) was 14.01% and the GI50 ([5]; Homo sapiens, MCF7, MCF-7, NCI 5 dose assay) was 339 nM. For the same compound, the Growth percentage ([5]; MCF-7, single dose 10 µM) was 18.38%, the GI50 ([6]; Homo sapiens, NCI 5 dose assay) was 414 nM and the Growth percentage ([6]; single dose 10 µM) was 29.10%. It also gave a GI50 ([7]; Homo sapiens, NCI 5 dose assay) of 693 nM, a Growth percentage ([7]; single dose 10 µM) of 42.41% and an IC50 [8] of 237 ± 40 nM. It also gave an IC50 [9] of 132 ± 7 nM, an IC50 ([9]; Homo sapiens, MCF7, 72 h) of 130 nM and a viability at 1 µM ([9]; Homo sapiens, MCF7, 1 μM, read-out: cell viability (viable cells)) of 31%. For the same compound, the Growth percentage [10] was 62.95%, the GI50 ([11]; Homo sapiens, IGROV-1, IGROV1, NCI 5 dose assay) was 862 nM and the Growth percentage ([11]; IGROV1, single dose 10 µM) was 36.42%. It also gave a GI50 ([12]; Homo sapiens, NCI 5 dose assay) of 229 nM, a Growth percentage ([12]; single dose 10 µM) of -35.94% and a GI50 ([13]; Homo sapiens, NCI 5 dose assay) of 182 nM. For the same compound, the Growth percentage ([13]; single dose 10 µM) was 8.48%, the inhibition at 20 µg/mL [14] was 74.7% and the GI50 ([15]; Homo sapiens, NCI 5 dose assay) was 289 nM. For the same compound, the Growth percentage ([15]; single dose 10 µM) was 6.97%, the GI50 ([16]; Homo sapiens, OVCAR-8, NCI 5 dose assay) was 450 nM and the Growth percentage ([16]; OVCAR-8, single dose 10 µM) was 10.28%. The GI50 ([17]; Homo sapiens, LOX IMV1, NCI 5 dose assay) was 523 nM, the Growth percentage ([17]; LOX IMV1, single dose 10 µM) was 25.65% and the GI50 ([18]; Homo sapiens, SK-OV-3, NCI 5 dose assay) was 465 nM. For the same compound, the Growth percentage ([18]; SK-OV-3, single dose 10 µM) was 21.78%.
